Tested on: 695427-040-R-J1-PDC complex spheroid viability
Assay: Anticancer human tumor 695427-040-R-J1-PDC patient-derived colon adenocarcinoma cell line growth inhibition [POLQ]
Settings: for IC50: curve of first compound; for viability, T/C: stronger effect = lower value
Summary of the method: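 Three-cell-type spheroids modelling solid tumor plus stroma served as the readout system; POL inhibitors were tested individually and in combination, concentration ranges set by clinical Cmax where known.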

[1] = second compound 0.0316 µM, first compound 0.0316 µM
[2] = second compound 0.0316 µM, first compound 0.1 µM
[3] = second compound 0.0316 µM, first compound 0.316 µM
[4] = second compound 0.0316 µM, first compound 1 µM
[5] = second compound 0.0316 µM, first compound 3.16 µM
[6] = second compound 0.0316 µM, first compound 10 µM
[7] = second compound 0.1 µM, first compound 0.0316 µM
[8] = second compound 0.1 µM, first compound 0.1 µM
[9] = second compound 0.1 µM, first compound 0.316 µM
[10] = second compound 0.1 µM, first compound 1 µM
[11] = second compound 0.1 µM, first compound 3.16 µM
[12] = second compound 0.1 µM, first compound 10 µM
[13] = second compound 0.316 µM, first compound 0.0316 µM
[14] = second compound 0.316 µM, first compound 0.1 µM
[15] = second compound 0.316 µM, first compound 0.316 µM
[16] = second compound 0.316 µM, first compound 1 µM
[17] = second compound 0.316 µM, first compound 3.16 µM
[18] = second compound 0.316 µM, first compound 10 µM
[19] = second compound 1 µM, first compound 0.0316 µM
[20] = second compound 1 µM, first compound 0.1 µM
[21] = second compound 1 µM, first compound 0.316 µM
[22] = second compound 1 µM, first compound 1 µM
[23] = second compound 1 µM, first compound 3.16 µM
[24] = second compound 1 µM, first compound 10 µM
[25] = second compound 3.16 µM, first compound 0.0316 µM
[26] = second compound 3.16 µM, first compound 0.1 µM
[27] = second compound 3.16 µM, first compound 0.316 µM
[28] = second compound 3.16 µM, first compound 1 µM
[29] = second compound 3.16 µM, first compound 3.16 µM
[30] = second compound 3.16 µM, first compound 10 µM
[31] = second compound 10 µM, first compound 0.0316 µM
[32] = second compound 10 µM, first compound 0.1 µM
[33] = second compound 10 µM, first compound 0.316 µM
[34] = second compound 10 µM, first compound 1 µM
[35] = second compound 10 µM, first compound 3.16 µM
[36] = second compound 10 µM, first compound 10 µM
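Note: spheroids exposed to compounds for seven days.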
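Throughout, for viability, T/C: 100% = DMSO vehicle control viability.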

CCc1cc2c(N3CCc4c(cc(Cn5ccnc5)cc4-c4cn(C)nc4C(F)(F)F)C3=O)cc(C)nc2c(OC)n1 + Cc1cccc(N(C)C(=O)C2C(O)CCN2c2nc(C)cc(C(F)(F)F)c2C#N)c1
IC50 (second compound 0.0316 µM): > 10 µM | IC50 (second compound 0.1 µM): > 10 µM | IC50 (second compound 0.316 µM): > 10 µM | IC50 (second compound 1 µM): > 10 µM | IC50 (second compound 3.16 µM): > 10 µM | IC50 (second compound 10 µM): > 10 µM | viability, T/C [1]: 102% | viability, T/C [2]: 99.6% | viability, T/C [3]: 104% | viability, T/C [4]: 108% | viability, T/C [5]: 108% | viability, T/C [6]: 98.3% | viability, T/C [7]: 110% | viability, T/C [8]: 100% | viability, T/C [9]: 102% | viability, T/C [10]: 107% | viability, T/C [11]: 103% | viability, T/C [12]: 103% | viability, T/C [13]: 108% | viability, T/C [14]: 105% | viability, T/C [15]: 93.2% | viability, T/C [16]: 105% | viability, T/C [17]: 110% | viability, T/C [18]: 95.7% | viability, T/C [19]: 117% | viability, T/C [20]: 95.6% | viability, T/C [21]: 88.3% | viability, T/C [22]: 95.4% | viability, T/C [23]: 108% | viability, T/C [24]: 85.2% | viability, T/C [25]: 99.8% | viability, T/C [26]: 92.2% | viability, T/C [27]: 91.8% | viability, T/C [28]: 106% | viability, T/C [29]: 97.5% | viability, T/C [30]: 108% | viability, T/C [31]: 102% | viability, T/C [32]: 98.7% | viability, T/C [33]: 87.8% | viability, T/C [34]: 95.4% | viability, T/C [35]: 93.9% | viability, T/C [36]: 89.7%

CC1COCCN1c1cc(C2(S(C)(=N)=O)CC2)nc(-c2ccnc3[nH]ccc23)n1 (centres undefined) + Cc1cccc(N(C)C(=O)C2C(O)CCN2c2nc(C)cc(C(F)(F)F)c2C#N)c1
IC50 (second compound 0.0316 µM): > 10 µM | IC50 (second compound 0.1 µM): > 10 µM | IC50 (second compound 0.316 µM): > 10 µM | IC50 (second compound 1 µM): > 10 µM | IC50 (second compound 3.16 µM): > 10 µM | IC50 (second compound 10 µM): > 10 µM | viability, T/C [1]: 104% | viability, T/C [2]: 99.1% | viability, T/C [3]: 101% | viability, T/C [4]: 95.1% | viability, T/C [5]: 101% | viability, T/C [6]: 82.5% | viability, T/C [7]: 107% | viability, T/C [8]: 101% | viability, T/C [9]: 98.5% | viability, T/C [10]: 93.8% | viability, T/C [11]: 95.5% | viability, T/C [12]: 81.2% | viability, T/C [13]: 105% | viability, T/C [14]: 95.7% | viability, T/C [15]: 100% | viability, T/C [16]: 93.4% | viability, T/C [17]: 91.7% | viability, T/C [18]: 88.8% | viability, T/C [19]: 91.1% | viability, T/C [20]: 91.6% | viability, T/C [21]: 101% | viability, T/C [22]: 103% | viability, T/C [23]: 107% | viability, T/C [24]: 80.9% | viability, T/C [25]: 103% | viability, T/C [26]: 89.8% | viability, T/C [27]: 89.7% | viability, T/C [28]: 89.9% | viability, T/C [29]: 97% | viability, T/C [30]: 73.9% | viability, T/C [31]: 93.1% | viability, T/C [32]: 96.8% | viability, T/C [33]: 91.9% | viability, T/C [34]: 87.8% | viability, T/C [35]: 92.8% | viability, T/C [36]: 67.1%

Source: PubChem BioAssay AID1963840 (Molecular Pharmacology Branch, DTP, NCI, 2024)
